Source: patent US6696407B1, “Huntington's disease treatment comprising administering aldose reductase inhibitors to increase striatal CNTF” (The Regents of the University of California, priority 1997, dated 2004)
Entries after “also recorded” stand apart in the source; their conditions may differ. Marks after values point to notes of the source that are not given here.

Legend:
[1] = test system: CNTF; assay: Striatal CNTF levels by ELISA; format: in vivo, rat; settings: adult rats, oral 50 mg/kg/day for two months
Procedure: CNTF protein was determined with an ELISA that utilizes a monoclonal capture antibody which recognizes a non-C-terminal epitope on both rat and human CNTF (Regeneron, Tarrytown, N.Y.). The captured CNTF was recognized by a polyclonal rabbit anti-rCNTF reporter antibody. An alkaline phosphatase-tagged goat anti-rabbit IgG was used to generate the signal. In practice, 96-well Immulon plates were coated with capture antibody overnight, then blocked and washed. After overnight incubation of standards and samples, plates were washed and reporter antibody added. Following final washes, the reaction was developed using the GIBCO BRL ELISA amplification system substrate and amplifier. The reaction was stopped with 0.5 N H2SO4 and the plates read at two wavelengths (490 nm and 650 nm).
ARIs Toirestat and Ponalrestat were orally administered to adult rats at a dose of 50 mg/kg/day for two months as described in Example 1 and in Mizisin et al (1997) Diabetes 46: 647-652. For each rat, the left and right striatum were dissected and combined for homogenization in phosphate buffered saline. CNTF levels in extract preparations were then measured by ELISA, as described in Example 1. Four rats served as controls, and five rats each received Tolrestat and Ponalrestat. Five ELISA assays were run for each rat and one mean value derived for each rat.

[2] = test system: myelinated fibers; assay: Axonal size-frequency distribution of myelinated fibers in sciatic nerve; format: in vivo, rat; settings: galactose-fed rats
Procedure: These studies were conducted with the approval of the San Diego Veterans Administration Animal Studies Subcommittee. Female Sprague-Dawley rats (240-300 g; Charles River, San Diego, Calif.) were housed in cages with wire bottoms to reduce contact with urine and feces. Groups were established and fed either a 40% D-galactose diet or a control diet specially formulated by Purina that contained 40% solka floc, a nonnutritive fiber, to balance nutritional intake. All diets contained 100% of the micronutrients required by rats and, with water, were available ad libitum. Each of these diet groups contained animals that were treated with the ARI, Ponalrestat (50 mg/kg), daily by oral gavage. After two months, rats were anesthetized by intraperitoneal injection (1 ml/kg ip) of pentobarbital sodium (12.5 mg/ml) and diazepam (1.25 mg/ml) in bacteriostatic saline. Under deep anesthesia, motor nerve conduction velocity (MNCV) was measured in the left hindlimb prior to removal of the sciatic nerve. The proximal portion was processed for subsequent light microscopic examination and the distal portion used for gas chromatographic analysis of nerve polyols. The contralateral sciatic nerve was removed and used for assay of CNTF-like neurotrophic activity and either Northern blot or ELISA analysis of CNTF mRNA or protein, respectively.
For light microscopic examination, proximal portions of sciatic nerve were fixed in 2.5% phosphate-buffered glutaraldehyde (490 mosmol/kg H2O). Tissue was then postfixed in 1% aqueous osmium tetroxide for 3 to 4 hours before dehydration using a series of graded alcohols and propylene oxide. […]
In each animal, computer-assisted analysis of the axonal size-frequency distributions of myelinated fibers was performed on a single thick section sampled from the tibial fascicle midway between the sciatic notch and popliteal fossa as described in detail previously by Forcier et al. (1991) J. Neuropathol. […] Briefly, video images (Cohu, San Diego, Calif.) of the tibial fascicle obtained with an Olympus light microscope were analyzed using a VAXstation II/GPX processor (Digital Equipment Corp., Boston, Mass.) with data translation imaging hardware (DT 2651, Data Translation, Marlboro, Mass.) for digitization of single video frames and an image processing board (DT2658) for mathematical operations. […]
Two months of galactose feeding was associated with a shift in the axonal size-frequency distribution of myelinated fibers towards those with smaller diameter axons (FIG. 4). […] Data are presented as the mean ±SD (N=8 to 10 per group) and were analyzed with a one way ANOVA after which multiple comparisons were made with the Student-Newman-Keuls test. […]

O=C(O)Cc1nn(Cc2ccc(Br)cc2F)c(=O)c2ccccc12 [Ponalrestat, 3-(4-bromo-2-fluorobenzyl)-4-oxo-3H-phthalazin-1-ylacetic acid]
Increase in striatal CNTF activity level versus control group [1]: significantly increased; also recorded: approximately three-fold
Relative number, Medium myelinated axons ([2]; diameter >3 μm but <7 μm, Ponalrestat 50 mg/kg daily oral, two months): 45.2 ± 5.0^a %
Relative number, Small myelinated axons ([2]; diameter ≦3 μm, Ponalrestat 50 mg/kg daily oral, two months): 17.7 ± 4.9%
Relative number, Large myelinated axons ([2]; diameter ≧7 μm, Ponalrestat 50 mg/kg daily oral, two months): 37.1 ± 6.7^a %
Changes in axonal caliber [2]: prevented
